These results are taken from ChEMBL document CHEMBL4364278, “2,7-naphthyridinone-based MET kinase inhibitors: A promising novel scaffold for antitumor drug development” (Eur J Med Chem, 2019).

For data set [1], the system named is HT-29. The experiment in a line: Antitumour activity against human HT-29 cells xenografted in athymic nude mouse assessed as tumor growth inhibition at 25 mg/kg, po administrated for 3 weeks by caliper method relative to control. The following applies: HT-29, po, 504 h, read-out: TGI. Format: functional. On the technique in general: A xenograft is tissue or cells of one species grown in another, often human tumour cells in immunodeficient mice.

The target of data set [2] is T1, Hepatocyte growth factor receptor (Homo sapiens, UniProt P08581).
T1 sequence (P08581 whole entry): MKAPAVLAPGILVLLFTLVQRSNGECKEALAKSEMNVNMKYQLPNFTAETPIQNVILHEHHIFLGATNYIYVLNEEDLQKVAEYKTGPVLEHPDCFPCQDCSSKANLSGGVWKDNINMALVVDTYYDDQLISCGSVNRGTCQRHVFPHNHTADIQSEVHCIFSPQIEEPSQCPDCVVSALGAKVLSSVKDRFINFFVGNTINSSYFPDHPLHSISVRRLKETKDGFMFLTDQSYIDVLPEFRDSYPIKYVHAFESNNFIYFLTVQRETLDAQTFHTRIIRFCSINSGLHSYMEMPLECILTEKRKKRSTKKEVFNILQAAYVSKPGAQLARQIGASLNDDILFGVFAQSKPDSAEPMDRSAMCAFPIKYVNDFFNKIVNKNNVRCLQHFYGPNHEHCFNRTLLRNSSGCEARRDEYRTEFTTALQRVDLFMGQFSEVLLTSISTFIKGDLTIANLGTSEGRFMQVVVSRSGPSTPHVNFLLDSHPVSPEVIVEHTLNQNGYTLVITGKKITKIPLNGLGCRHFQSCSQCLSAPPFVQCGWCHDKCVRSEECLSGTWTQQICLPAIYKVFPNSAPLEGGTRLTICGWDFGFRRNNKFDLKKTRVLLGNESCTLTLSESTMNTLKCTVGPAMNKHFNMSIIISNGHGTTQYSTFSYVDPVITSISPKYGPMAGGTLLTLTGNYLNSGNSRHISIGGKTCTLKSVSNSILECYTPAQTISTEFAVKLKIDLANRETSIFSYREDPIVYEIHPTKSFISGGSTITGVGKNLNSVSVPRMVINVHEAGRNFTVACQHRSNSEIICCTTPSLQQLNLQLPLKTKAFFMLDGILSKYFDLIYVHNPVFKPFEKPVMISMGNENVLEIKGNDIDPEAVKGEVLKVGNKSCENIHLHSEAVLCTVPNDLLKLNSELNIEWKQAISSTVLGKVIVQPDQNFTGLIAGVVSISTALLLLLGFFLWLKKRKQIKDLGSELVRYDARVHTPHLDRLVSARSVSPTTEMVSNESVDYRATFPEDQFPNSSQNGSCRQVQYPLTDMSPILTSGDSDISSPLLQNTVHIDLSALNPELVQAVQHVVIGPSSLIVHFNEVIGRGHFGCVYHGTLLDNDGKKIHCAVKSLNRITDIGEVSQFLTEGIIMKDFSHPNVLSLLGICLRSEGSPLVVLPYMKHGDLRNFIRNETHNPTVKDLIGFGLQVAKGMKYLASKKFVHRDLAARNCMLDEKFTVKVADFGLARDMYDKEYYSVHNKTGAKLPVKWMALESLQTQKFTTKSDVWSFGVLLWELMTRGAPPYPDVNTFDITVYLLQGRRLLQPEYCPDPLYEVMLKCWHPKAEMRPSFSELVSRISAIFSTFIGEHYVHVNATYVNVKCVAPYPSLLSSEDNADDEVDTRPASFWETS
Description: Inhibition of human recombinant His-tagged cMET cytoplasmic domain expressed in baculovirus expression system using biotin as substrate preincubated for 5 mins followed by substrate addition and measured after 30 to 60 mins by HTRF assay
Data set [3] has as its target T1, Hepatocyte growth factor receptor. This is another data set of the same source.
Description: Inhibition of HGF-induced cMET autophosphorylation in human MKN45 cells preincubated for 1 hr followed by HGF addition and measured after 10 mins by ELISA
Data set [4] addresses Vascular endothelial growth factor receptor 2 (Homo sapiens, UniProt P35968).
Description: Inhibition of recombinant human His-tagged VEGFR2 cytoplasmic domain expressed in baculovirus expression system using biotin as substrate preincubated for 5 mins followed by substrate addition and measured after 30 to 60 mins by HTRF assay
In data set [5] the test system is U-87 MG. Briefly: animal or person. The following applies: Mus musculus, po, 504 h, read-out: TGI.
Description: Antitumour activity against human U87MG cells xenografted in athymic nude mouse assessed as tumor growth inhibition at 25 mg/kg, po administrated for 3 weeks by caliper method relative to control
The nature of data set [6]: Cmax in rat at 10 mg/kg, po. Format: ADME, organism-based. Details: dose 10 mg/kg, route oral. The following applies: in vivo.
Data set [7] in a line: Tmax in rat at 10 mg/kg, po. Format: ADME, organism-based. The following applies: in vivo.
Data set [8] in a line: Half life in rat at 10 mg/kg, po. Format: ADME, organism-based. The following applies: in vivo.
Data set [9] in a line: AUC (0 to infinity) in rat at 10 mg/kg, po. Format: ADME, organism-based. The following applies: in vivo. Details: dose 10 mg/kg, route oral, time infinity.
The nature of data set [10]: Oral bioavailability in rat at 10 mg/kg. Format: ADME, organism-based. The following applies: in vivo.
The nature of data set [11]: Half life in rat at 2.5 mg/kg, iv. It is filed as ADME, organism-based. The following applies: in vivo.
Data set [12] in a line: AUC (0 to infinity) in rat at 2.5 mg/kg, iv. Format: ADME, organism-based. Also noted: dose 2.5 mg/kg, route intravenous, time infinity. The following applies: in vivo.
The nature of data set [13]: Clearance in rat at 2.5 mg/kg, iv. Format: ADME, organism-based. The following applies: in vivo.
Data set [14] can be described thus: Volume of distribution in rat at 2.5 mg/kg, iv. The following applies: in vivo. It is filed as ADME, organism-based.
Data set [15] concerns U-87 MG. Briefly: Antitumour activity against human U87MG cells xenografted in orally dosed athymic nude mouse assessed as inhibition in tumor growth administrated for 3 weeks by caliper method. Format: functional. The following applies: for inhibition: U-87MG ATCC; for minimal effective dose: po, 504 h, read-out: MED.
In data set [16] the test system is U-87 MG. Briefly: Antitumour activity against human U87MG cells xenografted in athymic nude mouse assessed as tumor growth inhibition at 40 mg/kg, po administrated for 3 weeks by caliper method relative to control. The following applies: 504 h, read-out: TGI.
Data set [17] has as its target Aurora kinase B (Homo sapiens) (UniProt Q96GD4). The experiment in a line: Inhibition of AuroraB (unknown origin) at 1 uM relative to control.
The target in data set [18] is Tyrosine-protein kinase receptor UFO (Homo sapiens) (UniProt P30530). Briefly: Inhibition of AXL (unknown origin) at 1 uM relative to control.
In data set [19] the target is Discoidin domain-containing receptor 2 (Homo sapiens) (UniProt Q16832). The experiment in a line: Inhibition of DDR2 (unknown origin) at 1 uM relative to control.
The target in data set [20] is Dual specificity tyrosine-phosphorylation-regulated kinase 2 (Homo sapiens) (UniProt Q92630). Briefly: Inhibition of DYRK2 (unknown origin) at 1 uM relative to control.
Data set [21] concerns the target Ephrin type-A receptor 3 (Homo sapiens) (UniProt P29320). The experiment in a line: Inhibition of EphA3 (unknown origin) at 1 uM relative to control.
The target in data set [22] is Ephrin type-B receptor 4 (Homo sapiens) (UniProt P54760). Briefly: Inhibition of EphB4 (unknown origin) at 1 uM relative to control.
Ephrin type-B receptor 4 (Homo sapiens), sequence (P54760 whole entry): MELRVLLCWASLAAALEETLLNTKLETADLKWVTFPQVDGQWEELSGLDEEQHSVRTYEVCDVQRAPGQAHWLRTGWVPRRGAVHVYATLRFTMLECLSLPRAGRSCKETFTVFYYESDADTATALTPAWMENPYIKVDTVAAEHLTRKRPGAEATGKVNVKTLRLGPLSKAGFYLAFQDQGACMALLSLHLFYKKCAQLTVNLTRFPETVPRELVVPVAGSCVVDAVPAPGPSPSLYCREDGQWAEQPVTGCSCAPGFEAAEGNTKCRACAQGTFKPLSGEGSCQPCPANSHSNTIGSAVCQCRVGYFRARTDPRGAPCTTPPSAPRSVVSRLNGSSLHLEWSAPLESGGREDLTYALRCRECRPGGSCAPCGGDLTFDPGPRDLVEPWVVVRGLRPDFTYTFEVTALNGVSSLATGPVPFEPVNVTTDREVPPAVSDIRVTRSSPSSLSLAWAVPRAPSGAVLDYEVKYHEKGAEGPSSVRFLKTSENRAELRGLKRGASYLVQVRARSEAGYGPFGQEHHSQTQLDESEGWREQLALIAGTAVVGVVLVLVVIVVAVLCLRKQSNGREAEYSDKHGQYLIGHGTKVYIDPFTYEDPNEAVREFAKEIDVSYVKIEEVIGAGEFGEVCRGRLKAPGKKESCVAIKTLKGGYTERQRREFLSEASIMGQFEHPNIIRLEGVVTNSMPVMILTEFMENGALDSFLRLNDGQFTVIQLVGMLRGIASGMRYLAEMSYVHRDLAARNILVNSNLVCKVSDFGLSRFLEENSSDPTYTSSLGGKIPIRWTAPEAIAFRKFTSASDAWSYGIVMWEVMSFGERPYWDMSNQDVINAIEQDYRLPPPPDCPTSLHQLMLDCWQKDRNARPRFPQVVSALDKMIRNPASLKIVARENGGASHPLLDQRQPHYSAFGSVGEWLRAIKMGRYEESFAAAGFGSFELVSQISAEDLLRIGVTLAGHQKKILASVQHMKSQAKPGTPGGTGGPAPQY
Data set [23] concerns the target Tyrosine-protein kinase Fes/Fps (Homo sapiens) (UniProt P07332). The experiment in a line: Inhibition of FES (unknown origin) at 1 uM relative to control.
The target in data set [24] is Tyrosine-protein kinase Fgr (Homo sapiens) (UniProt P09769). Briefly: Inhibition of FGR (unknown origin) at 1 uM relative to control.
The target in data set [25] is Vascular endothelial growth factor receptor 1 (Homo sapiens) (UniProt P17948). Briefly: Inhibition of FLT1 (unknown origin) at 1 uM relative to control.
Vascular endothelial growth factor receptor 1 (Homo sapiens), sequence (P17948 whole entry): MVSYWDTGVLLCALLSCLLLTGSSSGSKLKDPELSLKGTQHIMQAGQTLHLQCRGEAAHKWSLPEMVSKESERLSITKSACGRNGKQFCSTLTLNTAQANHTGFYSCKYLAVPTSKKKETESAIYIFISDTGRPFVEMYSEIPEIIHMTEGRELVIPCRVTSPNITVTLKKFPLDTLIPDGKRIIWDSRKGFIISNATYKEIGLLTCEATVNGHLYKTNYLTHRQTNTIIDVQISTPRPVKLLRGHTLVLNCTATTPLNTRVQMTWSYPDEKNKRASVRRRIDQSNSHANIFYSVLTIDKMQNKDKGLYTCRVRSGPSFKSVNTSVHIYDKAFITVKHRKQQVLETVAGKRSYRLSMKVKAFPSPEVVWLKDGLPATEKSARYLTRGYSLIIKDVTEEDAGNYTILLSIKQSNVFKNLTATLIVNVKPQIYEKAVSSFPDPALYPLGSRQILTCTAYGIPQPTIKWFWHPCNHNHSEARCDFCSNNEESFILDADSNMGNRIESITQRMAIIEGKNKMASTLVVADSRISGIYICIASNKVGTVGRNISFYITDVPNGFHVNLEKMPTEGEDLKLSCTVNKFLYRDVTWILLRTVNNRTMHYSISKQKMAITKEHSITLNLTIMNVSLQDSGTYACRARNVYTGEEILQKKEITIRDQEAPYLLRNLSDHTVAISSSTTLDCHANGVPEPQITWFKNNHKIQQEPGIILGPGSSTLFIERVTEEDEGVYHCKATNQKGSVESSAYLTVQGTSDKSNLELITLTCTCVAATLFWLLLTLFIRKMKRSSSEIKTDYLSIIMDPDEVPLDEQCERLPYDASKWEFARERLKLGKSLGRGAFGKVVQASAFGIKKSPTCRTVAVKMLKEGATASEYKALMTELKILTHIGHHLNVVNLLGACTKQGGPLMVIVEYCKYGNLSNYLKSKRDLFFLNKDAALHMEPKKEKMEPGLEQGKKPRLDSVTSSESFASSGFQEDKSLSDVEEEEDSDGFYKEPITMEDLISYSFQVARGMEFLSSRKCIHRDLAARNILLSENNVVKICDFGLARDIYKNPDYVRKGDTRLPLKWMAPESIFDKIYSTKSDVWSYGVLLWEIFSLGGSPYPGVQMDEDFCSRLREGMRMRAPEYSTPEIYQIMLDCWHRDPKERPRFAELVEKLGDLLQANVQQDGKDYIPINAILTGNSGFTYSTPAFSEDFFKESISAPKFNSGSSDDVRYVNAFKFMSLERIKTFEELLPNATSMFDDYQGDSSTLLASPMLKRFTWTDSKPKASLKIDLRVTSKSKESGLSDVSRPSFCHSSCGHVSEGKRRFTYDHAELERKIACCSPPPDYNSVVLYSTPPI
In data set [26] the target is Vascular endothelial growth factor receptor 3 (Homo sapiens) (UniProt P35916). Briefly: Inhibition of FLT4 (unknown origin) at 1 uM relative to control.
The target of data set [27] is Macrophage colony-stimulating factor 1 receptor (Homo sapiens) (UniProt P07333). The experiment in a line: Inhibition of FMS (unknown origin) at 1 uM relative to control.
Data set [28] has as its target Tyrosine-protein kinase Lck (Homo sapiens) (UniProt P06239). Briefly: Inhibition of LCK (unknown origin) at 1 uM relative to control.
Data set [29] concerns the target Tyrosine-protein kinase Lyn (Homo sapiens) (UniProt P07948). Briefly: Inhibition of LYN (unknown origin) at 1 uM relative to control.
Data set [30] has as its target Tyrosine-protein kinase Mer (Homo sapiens) (UniProt Q12866). Briefly: Inhibition of MER (unknown origin) at 1 uM relative to control.
Data set [31] deals with cAMP-dependent protein kinase catalytic subunit alpha (Homo sapiens) (UniProt P17612). The experiment in a line: Inhibition of PKA (unknown origin) at 1 uM relative to control.
The target of data set [32] is Proto-oncogene tyrosine-protein kinase receptor Ret (Homo sapiens) (UniProt P07949). The experiment in a line: Inhibition of RET (unknown origin) at 1 uM relative to control.
Data set [33] deals with Macrophage-stimulating protein receptor (Homo sapiens) (UniProt Q04912). Briefly: Inhibition of RON (unknown origin) at 1 uM relative to control.
For data set [34], the target named is Proto-oncogene tyrosine-protein kinase ROS (Homo sapiens) (UniProt P08922). The experiment in a line: Inhibition of ROS (unknown origin) at 1 uM relative to control.
For data set [35], the target named is Tyrosine-protein kinase receptor TYRO3 (Homo sapiens) (UniProt Q06418). Briefly: Inhibition of RSE (unknown origin) at 1 uM relative to control.
Data set [36] addresses Proto-oncogene tyrosine-protein kinase Src (Homo sapiens) (UniProt P12931). The experiment in a line: Inhibition of SRC (1 to 530 residues)(unknown origin) at 1 uM relative to control.
For data set [37], the target named is High affinity nerve growth factor receptor (Homo sapiens) (UniProt P04629). Briefly: Inhibition of TRKA (unknown origin) at 1 uM relative to control.
Data set [38] has as its target BDNF/NT-3 growth factors receptor (Homo sapiens) (UniProt Q16620). The experiment in a line: Inhibition of TRKB (unknown origin) at 1 uM relative to control.
The nature of data set [39]: Fraction unbound in rat plasma at 2 uM. It is filed as ADME, cell-free.
The nature of data set [40]: Fraction unbound in mouse plasma at 2 uM. Format: ADME, cell-free.
Data set [41] is described as follows: Fraction unbound in human plasma at 2 uM. Format: ADME, cell-free.
Data set [42] relates to U-87 MG. The experiment in a line: Antitumour activity against human U87MG cells xenografted in athymic nude mouse assessed as tumor growth inhibition at 12.5 mg/kg, po administrated for 3 weeks by caliper method relative to control. Format: functional, U-87MG ATCC. The following applies: 504 h, read-out: TGI.
The subject of data set [43] is U-87 MG. Briefly: Antitumour activity against human U87MG cells xenografted in athymic nude mouse assessed as tumor growth inhibition at 50 mg/kg, po administrated for 3 weeks by caliper method relative to control. Format: functional, U-87MG ATCC. The following applies: 504 h, read-out: TGI.
Data set [44] relates to HT-29. Briefly: Antitumour activity against human HT-29 cells xenografted in athymic nude mouse assessed as tumor growth inhibition at 50 mg/kg, po administrated for 3 weeks by caliper method relative to control. It is filed as functional. The following applies: HT-29, po, 504 h, read-out: TGI.

Tyrosine-protein kinase Lck (Homo sapiens), sequence (P06239 2-509 limits assumed): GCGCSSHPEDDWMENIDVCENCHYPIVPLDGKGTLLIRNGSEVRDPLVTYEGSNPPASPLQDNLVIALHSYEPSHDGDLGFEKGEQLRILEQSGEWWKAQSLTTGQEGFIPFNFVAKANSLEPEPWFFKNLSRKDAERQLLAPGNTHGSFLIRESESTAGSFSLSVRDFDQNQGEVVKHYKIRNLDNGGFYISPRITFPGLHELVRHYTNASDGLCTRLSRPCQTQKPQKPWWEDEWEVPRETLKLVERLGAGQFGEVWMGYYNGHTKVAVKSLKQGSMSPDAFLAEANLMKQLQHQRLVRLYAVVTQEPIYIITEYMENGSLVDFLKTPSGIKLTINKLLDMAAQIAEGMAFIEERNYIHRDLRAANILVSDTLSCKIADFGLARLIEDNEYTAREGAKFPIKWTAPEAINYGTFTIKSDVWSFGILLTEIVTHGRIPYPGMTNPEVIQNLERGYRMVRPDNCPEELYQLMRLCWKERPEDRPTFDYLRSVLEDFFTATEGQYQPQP
BDNF/NT-3 growth factors receptor (Homo sapiens), sequence (Q16620 32-822 limits assumed): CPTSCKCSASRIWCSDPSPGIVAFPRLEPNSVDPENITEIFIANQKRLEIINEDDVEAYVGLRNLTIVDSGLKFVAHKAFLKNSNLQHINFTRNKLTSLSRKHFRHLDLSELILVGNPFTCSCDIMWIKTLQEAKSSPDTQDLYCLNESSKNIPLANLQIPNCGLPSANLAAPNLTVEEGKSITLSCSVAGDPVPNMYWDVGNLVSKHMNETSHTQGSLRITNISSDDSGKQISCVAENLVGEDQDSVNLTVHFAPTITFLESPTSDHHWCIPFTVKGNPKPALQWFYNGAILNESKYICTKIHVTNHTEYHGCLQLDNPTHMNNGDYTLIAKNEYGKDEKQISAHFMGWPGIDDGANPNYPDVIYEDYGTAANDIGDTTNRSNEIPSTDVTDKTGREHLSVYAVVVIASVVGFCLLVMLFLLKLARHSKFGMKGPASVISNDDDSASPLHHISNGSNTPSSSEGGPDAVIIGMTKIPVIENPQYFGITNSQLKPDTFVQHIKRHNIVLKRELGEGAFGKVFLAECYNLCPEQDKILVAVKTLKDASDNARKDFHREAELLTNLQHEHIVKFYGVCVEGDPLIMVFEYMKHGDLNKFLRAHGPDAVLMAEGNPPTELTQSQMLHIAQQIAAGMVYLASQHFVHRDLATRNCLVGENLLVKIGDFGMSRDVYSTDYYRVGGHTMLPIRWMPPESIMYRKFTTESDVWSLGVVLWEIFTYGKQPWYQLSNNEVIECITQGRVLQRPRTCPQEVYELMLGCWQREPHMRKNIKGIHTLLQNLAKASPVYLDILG

As usually defined, the IC50 is the midpoint of a concentration-inhibition curve. As to `CCOc1ccn(-c2ccc(F)cc2)c(=O)c1C(=O)Nc1ccc(Oc2ccnc(N)c2Cl)c(F)c1` [BMS-777607], the values for the inhibition in vivo at 25 mg/kg in the data set with HT-29 [1] and in the data set on U-87 MG [5] were 15% and 98%, respectively. Further, the IC50 was 7.6 nM in [2], 46.6 nM in [3] and 139 nM in [4].
For orientation: Cmax means the maximum level reached in the sampled fluid or tissue. What is called Tmax is the time at which the peak concentration occurs. Broadly, the half-life is how long it takes for the measured level to halve. A high value points to slow decline. One may read the AUC(0-inf) as the area under the concentration-time curve extrapolated to infinity. Read a high AUC(0-inf) as high exposure. By bioavailability is commonly meant the share of a dose that reaches the circulation, judged against a reference dose that is usually intravenous. Read a high bioavailability as good availability. For orientation: AUC means concentration integrated over time. High values mean more exposure, low ones less exposure. By Vd is commonly meant the apparent volume that relates the amount in the body to the concentration in plasma or blood. The low end stands for confinement near the circulation, the high end for extensive tissue distribution. By inhibition is commonly meant the relative decrease from the control value, in per cent. As for `Cc1cc2ccnc(Nc3ccc(Oc4ccnc(N)c4Cl)c(F)c3)c2c(=O)n1-c1ccc(F)cc1`, in data set [6], the maximum concentration (Cmax) is 3700 ng/mL. Also, the time of peak concentration (Tmax) in data set [7] worked out at 2.3 h. In addition, the half-life in [8] was 11 h. In data set [9], this molecule yielded an AUC(0-inf) of 21200 ng·h/mL. In [10], this molecule returned a bioavailability of 51%. In data set [11], this molecule gave a half-life of 7 h. The AUC in data set [12] came to 10500 ng·h/mL. The molecule also showed a CL in data set [13] of 103 mL/min/kg. This molecule displayed a Vd in data set [14] of 2.4 L/kg. Moreover, in the data set on U-87 MG [15], the inhibition entry is “Dose-dependent effect” and the minimal effective dose was 32.5 mg/kg. Moreover, the inhibition in vivo at 40 mg/kg in the data set on U-87 MG [16] amounted to 72%. Besides, in the data set on U-87 MG [5], the inhibition in vivo at 25 mg/kg stood at 44%.
As usually defined, the clearance is the rate of elimination divided by the concentration. In the case of `Nc1nccc(Oc2ccc(Nc3nccc4ccn(-c5ccc(F)cc5)c(=O)c34)cc2F)c1Cl`, the inhibition in [17] was 44%; in [18], 97%; in [19] it was 98%; in data set [20] it was -9%; in data set [21], 38%; in data set [22] it was 10%. The inhibition in data set [23] stood at 10%; in [24] it was 62%; in data set [25] it was 95%; in data set [26], 100%; in [27], 88%; in data set [28], 75%. Also, the inhibition in data set [29] came to 43%; in data set [30] it was 100%; in data set [31], 43%; in [32], 96%; in data set [33] it was 100%; in data set [34], 87%. Besides, the inhibition is 83% in [35]; 35% in data set [36]; 99% in data set [37]; 100% in data set [38]; “Dose-dependent effect” with U-87 MG [15]. The same molecule registered a Cmax in data set [6] of 1600 ng/mL. In addition, the Tmax in [7] came to 1.2 h. Besides, the half-life in [8] was 5.1 h; in data set [11], 3.2 h. Besides, the AUC(0-inf) in [9] came to 6700 ng·h/mL; in data set [12], 3100 ng·h/mL. This molecule also had a bioavailability in data set [10] of 54%. Moreover, the clearance in [13] is 13.3 mL/min/kg. The same molecule had a Vd in data set [14] of 3.6 L/kg. Also, the Fu in [39], in data set [40] and in data set [41] was below 0.5% throughout. Further, the minimal effective dose in the data set with U-87 MG [15] turned out to be 12.5 mg/kg. Also, the inhibition in vivo at 12.5 mg/kg in the data set on U-87 MG [42] amounted to 53%. Moreover, the inhibition in vivo at 50 mg/kg with U-87 MG [43] worked out at 114%; in the data set on HT-29 [44] it was 95%. Moreover, the inhibition in vivo at 25 mg/kg in the data set on HT-29 [1] came to 50%; in the data set on U-87 MG [5] it was 100%. Further, in data set [3], half-maximal inhibition (IC50) was put at 69 nM.
On to `Cc1cc2ccnc(Nc3ccc(Oc4ccnc(N)c4I)c(F)c3)c2c(=O)n1-c1ccc(F)cc1`, for which the Cmax in [6] came to 2700 ng/mL. Also, in data set [7], the Tmax amounted to 1.5 h. Also, the half-life in data set [8] is 4.9 h; in data set [11], 4.2 h. Moreover, the AUC(0-inf) in data set [9] amounted to 25700 ng·h/mL; in [12], 13100 ng·h/mL. This molecule registered a bioavailability in [10] of 49%. In addition, the clearance in data set [13] is 6.67 mL/min/kg. Besides, the distribution volume (Vd) in data set [14] was 2.9 L/kg.
With `Cc1cc2ccnc(Nc3ccc(Oc4ccnc(N)c4Cl)c(F)c3)c2c(=O)n1-c1ccc(OC(F)(F)F)cc1`, the IC50 in data set [2] is above 1000 nM.
